Measurements as given in paper PMC12052742, “Engineering a newly identified alcohol dehydrogenase from Sphingobium Sp. for efficient utilization of nicotinamide cofactors biomimetics” (Bioresources and Bioprocessing, 2025).

Columns and labels:
[1] = test system: SpADH2; experiment: Cofactor spectrum of syringyl alcohol oxidation (HPLC specific activity), WT; format: biochemical, Sphingobium sp. SYK-6
Description: Fig. 2 Cofactor spectrum of syringyl alcohol oxidation catalyzed by SpADH2. The darkness of the background color for each cofactor stands for the activity of SpADH2 utilizing various cofactors. (a) NAD(P) ^+ and NMN^+ are shown in purple background. (b) tsNCBs are shown in cyan background. The evaluation of cofactor spectrum of SpADH2 was carried out under following conditions: 50 mM PBS buffer (pH 7.5) and 30℃, with 1a (5 mM) as substrate and different cofactors (7.5 mM) as cofactor. For NAD(P)^+ and NMN^+, 0.05 µg SpADH2 was added, and for tsNCBs, 5 µg SpADH2 was added. The results were analyzed by HPLC after 1 h reaction
Specific activity of SpADH2 in cofactor spectrum study was determined by HPLC analysis. PBS (pH 7.5) buffer was pre-heated at 30°C for 15 min. For NAD(P)^+ and NMN^+, 0.05 µg SpADH2 was added to PBS buffer (100 µL). For tsNCBs, 5 µg SpADH2 was added. A final concentration of 7.5 mM cofactor was added to the reaction mixture. Finally, a final concentration of 5 mM substrate was added to start the reaction. The reactions were conducted at 30°C.
One unit of enzyme activity is defined as the amount of enzyme required to form 1 µmol 1b per minute at pH 7.5 and 30°C. Same reaction without cofactor was used as a blank control.

[2] = molecular target: SpADH2 WT (Sphingobium sp. SYK-6, UniProt G2IIZ8); experiment: Substrate kinetic assay, WT; format: biochemical
Description: (§1) Specific activity of SpADH2 in substrate spectrum study was measured spectrophotometrically. PBS (pH 7.5) buffer was pre-heated at 30°C for 15 min. For NAD^+, 0.05 µg SpADH2 was added to the PBS buffer (100 µL), and a final concentration of 2 mM NAD^+ was added. For tsNCBs cofactor p-BANA^+, 5 µg SpADH2 and a final concentration of 7.5 mM p-BANA^+ was added. The mixture was carried out in a 96-well microplate, and a final concentration of 5 mM substrate was added to start the reaction. The microplate was incubated in 30°C for 1 h. Florescent probes (2-[2-(1,4-dihydro-1-methyl-3-quinolinyl)ethenyl]-1,3,3-trimethyl-3H-indolium) in a final concentration of 0.2 mM (100 µL) was added (Scheme S1), and the microplate was placed in a microplate reader immediately for measurement under 537 nm (Fomin et al. [2016]).
(§2) Kinetic analysis of SpADH2 and its variants were carried out following Michaelis-Menten equation or Michaelis-Menten excess substrate inhibition equation. For of the substrate kinetic assays, concentrations of cofactors were fixed at 5 mM for NAD^+ and 7.5 mM for p-BANA^+. For cofactor kinetic assays, the concentration of 1a was fixed at 5 mM.
(§3) Specific activity was determined spectrophotometrically as above except that gradient 1a (0−20 mM) or cofactor (0−35 mM) concentrations were applied.
(§4) Cofactor specificity ratio (CSR) represents the ratio of catalytic efficiency of p-BANA^+ to NAD^+ for each enzyme, and relative specificity (RS) stands for the CSR ratio of variants to WT (King et al. [2020]).

[3] = test system: SpADH2 variant A290I; experiment: Substrate kinetic assay, A290I; format: biochemical, Sphingobium sp. SYK-6
Description: as §1, §2, §3, §4

[4] = test system: SpADH2 variant A290I; experiment: Cofactor kinetic assay, A290I; format: biochemical, Sphingobium sp. SYK-6
Description: as §1, §2, §3, §4

[5] = test system: SpADH2 variant H43L/A290I; experiment: Cofactor kinetic assay, H43L/A290I; format: biochemical, Sphingobium sp. SYK-6
Description: as §1, §2, §3, §4

[6] = test system: SpADH2 variant A47L; experiment: Activity of variant in oxidation of syringyl alcohol with p-BANA^+ (Fig. 5), A47L; format: biochemical, Sphingobium sp. SYK-6; settings: cofactor p-BANA^+, substrate syringyl alcohol
Description: (§5) In the first round of screening, saturation mutagenesis was constructed for six positions (W114, T177, G172, G316, A47, and R227). […] Therefore, in the second round of mutagenesis, six additional sites within the 5 Å range of the cofactor ribose (H43, V202, T265, V288, G289, and A290) were selected for saturation mutagenesis screening (Fig. 6c and Fig. S6). Three beneficial mutations were identified. […] Subsequently, combinatorial mutagenesis was performed, resulting in 11 double variants and 3 triple variants.
(§6) Fig. 5 Relative activity of SpADH2 and its variants in oxidation of syringyl alcohol when utilizing p-BANA^+ as cofactor
(§7) In preliminary screening by spectrophotometric analysis, PBS (pH 7.5) buffer (50 µL) in a 96-well plate was pre-warmed at 30°C for 15 min, and a final concentration of 5 mM p-BANA^+ and 1 mM substrate syringyl alcohol were added, and 50 µL of crude enzyme were add to each well to start the reaction, with WT as control. The reaction mixture was incubated at 30°C for 1 h, followed by addition of fluorescent probes in a final concentration of 0.2 mM, and was subjected to determination under 537 nm as described above.

[7] = test system: SpADH2 variant A47S; experiment: Activity of variant in oxidation of syringyl alcohol with p-BANA^+ (Fig. 5), A47S; format: biochemical, Sphingobium sp. SYK-6; settings: cofactor p-BANA^+, substrate syringyl alcohol
Description: as §5, §6, §7

[8] = test system: SpADH2 variant A290V; experiment: Activity of variant in oxidation of syringyl alcohol with p-BANA^+ (Fig. 5), A290V; format: biochemical, Sphingobium sp. SYK-6; settings: cofactor p-BANA^+, substrate syringyl alcohol
Description: as §5, §6, §7

[9] = 1a varied, cofactor (= label) fixed: 5 mM NAD^+ or 7.5 mM p-BANA^+
[10] = cofactor (= label) varied, 1a fixed at 5 mM
[11] = cofactor (= label) varied, 1a fixed at 5 mM, pH 7.5, 30°C
[12] = cofactor (= label) varied, 1a fixed at 5 mM, read-out: Ki (cofactor inhibition)
[13] = cofactor kinetics, cofactor = label

Sequence of SpADH2 WT (G2IIZ8 1-372): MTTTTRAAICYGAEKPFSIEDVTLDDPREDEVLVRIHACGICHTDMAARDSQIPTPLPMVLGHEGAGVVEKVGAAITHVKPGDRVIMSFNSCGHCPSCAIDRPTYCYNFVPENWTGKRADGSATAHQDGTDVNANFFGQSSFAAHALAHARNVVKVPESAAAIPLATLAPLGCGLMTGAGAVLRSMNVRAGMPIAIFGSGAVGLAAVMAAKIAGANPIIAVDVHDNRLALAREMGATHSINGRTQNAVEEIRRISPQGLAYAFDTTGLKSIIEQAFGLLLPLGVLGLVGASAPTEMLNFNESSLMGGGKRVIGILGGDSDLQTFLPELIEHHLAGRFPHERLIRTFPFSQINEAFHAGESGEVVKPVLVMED

With NC(=O)c1ccc[n+](Cc2ccc(C(=O)O)cc2)c1 [p-BANA^+, para-3-carbamoyl-1-(4-carboxybenzyl)pyridin-1-ium] as the compound, how does the “activity of SpADH2 with the tsNCB as cofactor” value ([1]; 1a 5 mM, cofactor 7.5 mM, pH 7.5, 30℃, 5 µg SpADH2, 1 h) read?
Its value is 11.55 U/g.

And the “fold increasement of activity compared with preliminary assay” value ([1]; optimized conditions vs preliminary assay)?
The value was 7.1 fold.

What about the kcat [2, 9] of the same compound?
Its kcat is 1.1 ± 0.3 min^− 1.

And the “Cofactor specificity ratio (catalytic efficiency of p-BANA^+ to NAD^+)” value ([2]; substrate kinetics)?
Its value is 1.52×10^-5.

And the kcat [3, 9]?
The kcat was 11 ± 4.1 min^− 1.

What about the “Cofactor specificity ratio (catalytic efficiency of p-BANA^+ to NAD^+)” value ([3]; substrate kinetics) of the same compound?
The value was 2.95×10^-4.

And the “Relative specificity (CSR ratio of variant to WT)” value ([3]; substrate kinetics)?
The value was 19.4.

And the “fold increase in kcat vs WT” value ([3]; substrate kinetics, cofactor = label)?
The value was 10 fold.

What about the kcat [4, 10] of the same compound?
Its kcat is 13 ± 2.5 min^− 1.

What about the Km [4, 11] of the same compound?
The Km was 14 ± 3.8 mM.

And the Ki [4, 12]?
Its Ki is 18 ± 5.8 mM.

And the “Cofactor specificity ratio (catalytic efficiency of p-BANA^+ to NAD^+)” value ([4]; cofactor kinetics)?
The value was 2.96×10^-4.

And the “Relative specificity (CSR ratio of variant to WT)” value ([4]; cofactor kinetics)?
The value was 7.77.

What about the “fold higher catalytic efficiency (kcat/Km) than WT” value [4, 13] of the same compound?
The value was 10 fold.

What about the “fold increase in kcat value vs WT” value [4, 13] of the same compound?
Its value is 7.9 fold.

What about the kcat [5, 10] of the same compound?
The kcat was 8.7 ± 1.3 min^− 1.

What about the Km [5, 11] of the same compound?
Its Km is 13 ± 2.7 mM.

What about the Ki [5, 12] of the same compound?
Its Ki is 15 ± 3.5 mM.

And the “Cofactor specificity ratio (catalytic efficiency of p-BANA^+ to NAD^+)” value ([5]; cofactor kinetics)?
Its value is 1.94×10^-2.

And the “Relative specificity (CSR ratio of variant to WT)” value ([5]; cofactor kinetics)?
Its value is 509.

And the “fold higher activity than WT” value [6]?
The value was 4.3 fold.

And the “fold higher activity than WT” value [7]?
Its value is 1.8 fold.

What about the “fold increase in activity vs WT” value [8] of the same compound?
Its value is 3 fold.
